Assay results taken from ChEMBL document CHEMBL4732128, “Methylsulfanylpyridine based diheteroaryl isocombretastatin analogs as potent anti-proliferative agents” (Eur J Med Chem, 2021).
Values after ≈ are worked out from the molar mass of the structure shown.

Experiments:
[1] = Inhibition of bovine brain tubulin polymerization incubated for 30 mins by turbidimetric assay; format: tissue-based, Bos taurus
HeLa = test: Antiproliferative activity against human HeLa cells assessed as inhibition of cell growth after 72 hrs by XTT assay; format: functional, cell-based
HL-60 = test: Antiproliferative activity against human HL-60 cells assessed as inhibition of cell growth after 72 hrs by XTT assay; format: functional, cell-based; conditions: HL-60, 72 h
HT-29 = test: Antiproliferative activity against human HT-29 cells assessed as inhibition of cell growth after 72 hrs by XTT assay; format: functional, cell-based; conditions: HT-29, 72 h
[2] = Aqueous solubility of the compound in pH 7.0 phosphate buffer at 2 mg incubated for 72 hrs by shake flask method; format: physicochemical

Compound | IC50 [1] [nM] | IC50 (HeLa) [nM] | IC50 (HL-60) [nM] | IC50 (HT-29) [nM] | solubility thermodynamic at 72 h [2] [µg/mL]
CSc1cc(/C=C\c2ccc3c(ccn3C)c2)cc(SC)n1 | > 5000 | ≥ 10 | ≥ 10 | 633 | –
CSc1cc(C(=NO)c2cccc(N(C)C)c2)cc(SC)n1 | > 5000 | ≥ 10 | ≥ 10 | ≥ 10 | 14.7 (≈ 44.1 µM)
C=C(c1cc(Cl)nc(SC)c1)c1ccc2c(c1)c(C#N)cn2C | 600 | 158 | 74 | 278 | 3.2 (≈ 9.42 µM)
COc1ccc(C(C)c2cc(SC)nc(SC)c2)cc1 (stereo unspecified) | > 5000 | ≥ 10000 | ≥ 10000 | ≥ 10000 | –
CSc1cc(C(=O)c2ccc3c(ccn3C)c2)cc(Cl)n1 | 2400 | 388 | 490 | ≥ 10 | –
C=C(c1cc(Cl)nc(SC)c1)c1ccc2c(c1)c(C(=O)O)cn2C | > 5000 | ≥ 10 | ≥ 10 | ≥ 10 | –
C=C(c1ccc(N(C)C)cc1)c1cc(SC)nc(SC)c1 | 3800 | 328 | 486 | 928 | 6.9 (≈ 21.8 µM)
CSc1cc(C(=O)c2ccc3c(c2)c(C=O)cn3C)cc(Cl)n1 | > 5000 | ≥ 10 | ≥ 10 | ≥ 10 | –
C=C(c1cc(Cl)nc(SC)c1)c1ccc2c(c1)c(C(N)=O)cn2C | 2300 | 82 | 44 | 38 | –
COc1ccc(/C=C\c2cc(OC)c(OC)c(OC)c2)cc1O [COMBRETASTATIN A4] | 2800 | – | – | 305 | –
CSc1cc(C(O)c2ccc3c(ccn3C)c2)cc(SC)n1 (stereo unspecified) | > 5000 | ≥ 10000 | ≥ 10000 | ≥ 10 | –
C=C(c1ccc(OC)cc1)c1cc(SC)nc(SC)c1 | 2000 | 399 | 306 | 550 | 35.7 (≈ 118 µM)
COc1ccc(S(=O)(=O)Nc2cccnc2Nc2ccc(O)cc2)cc1 [ABT-751] | 4000 | 388 | – | 514 | –
C=C(c1cc(SC)nc(SC)c1)c1ccc2c(c1)c(C(N)=O)cn2C | 2400 | 601 | 223 | 276 | –
C=C(c1cccc(N(C)C)c1)c1cc(SC)nc(SC)c1 | > 5000 | ≥ 10 | ≥ 10 | ≥ 10 | 2.4 (≈ 7.58 µM)
CSc1cc(C(=O)c2ccc3c(c2)c(C=O)cn3C)cc(SC)n1 | > 5000 | ≥ 10 | ≥ 10 | ≥ 10 | 230 (≈ 646 µM)
COc1ccc(C(=O)c2cc(Cl)nc(SC)c2)cc1 | > 5000 | ≥ 10000 | ≥ 10000 | ≥ 10000 | –
C=C(c1cc(SC)nc(SC)c1)c1ccc2c(c1)c(C#N)cn2C | 400 | 579 | 604 | 587 | 46.3 (≈ 132 µM)
CSc1cc(C(=O)c2ccc(N(C)C)nc2)cc(SC)n1 | > 5000 | ≥ 10 | ≥ 10 | ≥ 10 | 47.1 (≈ 147 µM)
CSc1cc(C(=NO)c2ccc(N(C)C)cc2)cc(SC)n1 | 2100 | 269 | 213 | 781 | 1.1 (≈ 3.3 µM)

Compound | IC50 [1] [nM] | IC50 (HeLa) [nM] | IC50 (HL-60) [nM] | IC50 (HT-29) [nM] | solubility thermodynamic at 72 h [2] [µg/mL]
CSc1cc(C(=O)c2ccc3ccccc3c2)cc(SC)n1 | > 5000 | ≥ 10 | ≥ 10 | ≥ 10 | –
CSc1cc(C(=O)c2cccc(N(C)C)c2)cc(SC)n1 | > 5000 | ≥ 10 | ≥ 10 | ≥ 10 | 1.3 (≈ 4.08 µM)
C=C(c1cc(SC)nc(SC)c1)c1ccc2c(ccn2C)c1 | 1100 | 520 | 717 | 249 | –
C=C(c1cc(SC)nc(SC)c1)c1ccc2c(c1)c(C(=O)O)cn2C | 4700 | ≥ 10 | ≥ 10 | ≥ 10 | 103 (≈ 277 µM)
COc1ccc(C(=NO)c2cc(SC)nc(SC)c2)cc1 | 3000 | 457 | 299 | 292 | –
COc1ccc(C(=O)c2cc(SC)nc(SC)c2)cc1 | > 5000 | ≥ 10000 | ≥ 10000 | ≥ 10000 | 1.5 (≈ 4.91 µM)
COc1ccc(/C=C\c2cc(SC)nc(SC)c2)cc1 | 3800 | ≥ 10 | ≥ 10 | ≥ 10 | –
COc1ccc(C(=NO)c2cc(Cl)nc(SC)c2)cc1 | 4600 | 518 | 613 | ≥ 10000 | 41.7 (≈ 135 µM)
CSc1cc(C(O)c2ccc(N(C)C)nc2)cc(SC)n1 (stereo unspecified) | > 5000 | ≥ 10 | ≥ 10 | ≥ 10 | –
CSc1cc(C(=NO)c2ccc3ccccc3c2)cc(SC)n1 | > 5000 | ≥ 10 | ≥ 10 | ≥ 10 | –
CSc1cc(C(=O)c2ccc(N(C)C)cc2)cc(SC)n1 | > 5000 | 652 | 435 | 787 | 1 (≈ 3.14 µM)
CSc1cc(C(=NO)c2ccc3c(ccn3C)c2)cc(SC)n1 | 1000 | 590 | 240 | 745 | –
CSc1cc(C(=O)c2ccc3c(ccn3C)c2)cc(SC)n1 | 1700 | 233 | 222 | 549 | –
CSc1cc(C(O)c2ccc(N(C)C)cc2)cc(SC)n1 (stereo unspecified) | > 5000 | ≥ 10 | ≥ 10 | ≥ 10 | –
C=C(c1cc(Cl)nc(SC)c1)c1ccc2c(ccn2C)c1 | 300 | 176 | 416 | 511 | 12.3 (≈ 39.1 µM)
CSc1cc(C(=NO)c2ccc3c(ccn3C)c2)cc(Cl)n1 | > 5000 | 365 | 257 | ≥ 10 | 14.8 (≈ 44.6 µM)
C=C(c1ccc(OC)cc1)c1cc(Cl)nc(SC)c1 | 1500 | 628 | 464 | 485 | 48.9 (≈ 168 µM)
C=C(c1cc(SC)nc(SC)c1)c1ccc2c(c1)c(C=O)cn2C | 1200 | 64 | 303 | 573 | 7.6 (≈ 21.4 µM)
CCOC(=O)C(O)(c1ccc(OC)cc1)c1cc(Cl)nc(SC)c1 (stereo unspecified) | > 5000 | ≥ 10 | ≥ 10 | ≥ 10 | –
C=C(c1cc(SC)nc(SC)c1)c1ccc2ccccc2c1 | > 5000 | ≥ 10 | ≥ 10 | ≥ 10 | 1.9 (≈ 5.87 µM)
